Laboratory results from US9266839B2, “Trifluoromethyl pyrazolyl guanidine F1F0-ATPase inhibitors and therapeutic uses thereof” (Lycera Corporation, priority 2013, dated 2016).

Columns and labels:
[1] = tested on: Ramos cells; assay: Cytotoxicity in Ramos cells; assay type: cell-based; conditions: Homo sapiens; cytotoxicity in Ramos cells; read-out: Ramos Cell EC50
Procedure: (§1) Compounds in Table 5 below were tested for activity against F1F0-ATPase by measuring the ability of the compounds to inhibit ATP synthesis. In addition, the compounds were assessed for cytotoxicity in Ramos cells. Inhibition of F1F0-ATPase activity in synthesizing ATP and cytotoxicity in Ramos cells were measured according to the procedures described in K. M. Johnson et al. Chemistry & Biology 2005, 12, 485-496.
(§2) The activity of compound 3-chloro-N-(((3-chloro-5-fluorophenyl)amino)((5-(trifluoromethyl)-1H-pyrazol-3-yl)amino)methylene)benzamide towards F1F0-ATPase and Ramos cells was evaluated by performing multiple times the assay procedures described in Part I. In particular, activity against F1F0-ATPase was evaluated by measuring the ability of the compound to inhibit ATP synthesis in twelve independent experiments. Cytotoxicity towards Ramos cells was measured in thirteen independent experiments. Consistent with the procedure in Part I, the compound was dissolved in dimethylsulfoxide to form a solution that was applied to F1F0-ATPase or Ramos cells, and the assays were performed according to procedures described in K. M. Johnson et al. Chemistry & Biology 2005, 12, 485-496.
(§3) Similarly, EC50 values (for cytotoxicity towards Ramos cells) from multiple replications of the experimental procedure were averaged. The mean EC50 value for 3-chloro-N-(((3-chloro-5-fluorophenyl)amino)((5-(trifluoromethyl)-1H-pyrazol-3-yl)amino)methylene)benzamide for cytotoxicity towards Ramos cells was determined to be 59±6 nM.

[2] = Cytotoxicity in Ramos cells; assay type: cell-based; conditions: human, Ramos cells; mean of thirteen independent experiments; compound dissolved in dimethylsulfoxide; read-out: mean EC50 for cytotoxicity towards Ramos cells
Procedure: as §1, §2, §3

[3] = molecular target: Cytochrome P450 2D6 (Homo sapiens (Human), UniProt P10635); assay: Inhibition of Cytochrome P450 2D6 in human liver microsomes; assay type: in vitro ADME; conditions: 30 minutes incubation with test compound, substrate dextromethorphan 10 μM, read-out: CYP2D6 IC50
Procedure: Master solutions were prepared containing human liver microsomes (Gibco, 0.2 mg/mL) and MgCl2 (5 mM) in potassium phosphate buffer (10 mM). To aliquots (169 μL) of the microsome solution was added test compound in acetonitrile (1 μL) and DMSO (1 μL) to provide final test compound concentrations of 0, 0.005, 0.05, 0.25, 1, 5, 10, and 25 μM.
NADPH (10 mM) in ultra-pure water (20 μL) was added, and this mixture was incubated at 37° C. for 30 minutes. The enzyme reaction then was initiated by the addition of enzyme substrate (dextromethorphan) dissolved in 1 μL of acetonitrile and 9 μL of ultra-pure water. The final substrate concentration was 10 μM.
After 20 minutes, the incubation mixture was diluted with 3 volumes of cold methanol containing imipramine (200 nM), labetalol (200 nM), and ketoprofen (2 μM) as internal standards. Samples were centrifuged at 16,000 g for 10 minutes, then an aliquot of the supernatant (200 μL) was removed and analyzed by LC/MS/MS.
LC/MS/MS analyses were performed in duplicate using a Shimadzu HPLC and an API 4000 mass spectrometer. Liquid chromatography employed a Phenomenex C18, 5 μm, 50×2 mm column fitted with a guard column. Solvent A was acetonitrile containing 0.1% v/v formic acid. Solvent B was water containing 0.1% v/v formic acid. […]
The formation of metabolites was evaluated by peak area, and data were analyzed using Prism 5.0 software (GraphPad). […]

Chain of Cytochrome P450 2D6 (P10635 whole entry): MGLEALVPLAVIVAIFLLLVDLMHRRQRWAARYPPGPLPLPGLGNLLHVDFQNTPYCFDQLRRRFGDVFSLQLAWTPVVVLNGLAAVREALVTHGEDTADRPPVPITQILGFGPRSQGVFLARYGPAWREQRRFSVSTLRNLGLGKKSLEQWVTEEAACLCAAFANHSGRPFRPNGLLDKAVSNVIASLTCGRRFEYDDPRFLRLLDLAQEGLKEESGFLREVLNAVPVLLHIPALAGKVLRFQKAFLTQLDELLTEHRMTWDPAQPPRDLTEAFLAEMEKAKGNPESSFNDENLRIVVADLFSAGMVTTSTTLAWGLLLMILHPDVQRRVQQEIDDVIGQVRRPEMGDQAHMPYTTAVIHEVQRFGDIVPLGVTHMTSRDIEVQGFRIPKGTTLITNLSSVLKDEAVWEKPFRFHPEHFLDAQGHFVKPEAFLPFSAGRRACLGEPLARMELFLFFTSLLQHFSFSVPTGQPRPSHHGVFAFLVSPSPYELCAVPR

| IC50 [3] [nM] | Structure (SMILES) | EC50 [1] [nM] | EC50 [2] [nM] |
| --- | --- | --- | --- |
| 3200 | O=C(/N=C(/Nc1cc(F)cc(Cl)c1)Nc1cc(C(F)(F)F)[nH]n1)c1cccc(Cl)c1 [Compound 1, 3-chloro-N-(((3-chloro-5-fluorophenyl)amino)((5-(trifluoromethyl)-1H-pyrazol-3-yl)amino)methylene)benzamide] | 50 | 59 ± 6 |
| 1100 | O=C(/N=C(/Nc1cccc(Cl)c1)Nc1cc(C(F)(F)F)[nH]n1)c1cccc(Cl)c1 [Compound 2, 3-chloro-N-(((3-chlorophenyl)amino)((5-(trifluoromethyl)-1H-pyrazol-3-yl)amino)methylene)benzamide, reference compound] | 100 |  |
|  | O=C(/N=C(/Nc1cc(F)cc(Cl)c1)Nc1cc(C(F)F)[nH]n1)c1ccc(Cl)cc1 [Compound 3] | 1840 |  |
|  | O=C(/N=C(/Nc1cc(F)cc(Cl)c1)Nc1cc(C(F)(F)F)[nH]n1)c1ccc(Cl)cc1 [Compound 4] | 120 |  |
